Source: article PMC6272674, “Selected Compounds Structurally Related to Acyclic Sesquiterpenoids and Their Antibacterial and Cytotoxic Activity” (Molecules, 2015)
Converted amounts (≈) assume the structure as drawn.

Tests used:
MTT viability, IEC6 = format: cell-based; settings: rat, IEC-6 small intestine epithelial cells, 1000 µM (IC50 exceeded 1000 µM), read-out: viability ± standard deviation at 1000 µM
Method: (§1) Cell lines and in vitro culture conditions: The human promyelocytic leukaemia cell line HL-60 was obtained from the Centre of Molecular and Macromolecular Biology in Łódź, Poland and was cultured in RPMI 1640 medium with 20% heat-inactivated fetal bovine serum (FBS). To reduce spontaneous differentiation, the cells were never allowed to exceed a concentration of 1.0 × 10^6 cells/mL. The human keratinocyte cell line HaCaT was obtained from Cell Lines Service, Germany (CLS) and cultured in DMEM medium with 10% FBS. Human colorectal adenocarcinoma HT29 and normal epithelial IEC-6 cell lines (from ATCC) were cultured in DMEM medium with 10% FBS. The human skin melanoma cell line MEWO (from CLS) was cultured in DMEM:F12 supplemented with 2 mM L-glutamine and 10% FBS. Human fibroblasts from gingiva isolated from original tissue, HFIB-G, (from Provitro) were cultured in Quantum 333 (from Immunique). The media were supplemented with 100 U/mL penicillin and 100 µg/mL streptomycin; all media components were obtained from Life Technologies. The adherent cell lines used in the studies were seeded on microplates before they exceeded 80% of confluence. Cells were cultured at 37 °C in 5% CO2 air atmosphere/95% air atmosphere.
(§2) Cytotoxic activity: The cells (the density for HL-60 was 0.5 × 10^4 cells/100 µL, otherwise it was 1 × 10^4 cells/100 µL) were plated into each well of 96-well microtiter plates and, after their attachment to the plate surface, treated with 10 µL of the indicated concentrations of compounds for 24 h. Viability was determined by MTT assay following the treatment. MTT (3-[4.5-dimethylthiazol-2-yl]-2.5-diphenyltetrazolium bromide; Sigma, St. Louis, MO, USA) solution was added to each well and incubated for another 4 h. The resulting MTT-formazan product was dissolved by the addition of lysis buffer (20% SDS and 50% DMF). The amount of formazan was determined by measuring absorbance at 570 nm with a Synergy 2 microplate reader (BioTek, Winooski, VT, USA) operated by the Gen5 program. The experiments were conducted three times with five replications. The results are expressed as an optical density ratio of the treatment to control. All data are presented as means ± SD.

[1] = tested on: Staphylococcus aureus ATCC 43300; test: Micro-dilution broth MIC, Staphylococcus aureus; format: cell-based; settings: ATCC43300, 24 h, 37 °C, read-out: Minimum Inhibitory Concentrations MIC
Method: (§3) The standard strains, Gram-positive: Staphylococcus aureus ATCC […], Enterococcus faecalis Van B ATCC 51299 and Enterococcus faecium VA sensitive ATCC 35667, and Gram-negative: Escherichia coli ATCC 25922, Klebsiella pneumoniae ATCC 700603 and Acinetobacter baumannii ATCC 19606, came from a collection of the Environmental Biology Department, Medical University of Łódź. The standard strains were cultivated in Columbia Agar Medium and incubated at 37 °C for 24 h in aerobic conditions.
(§4) The antibacterial activity of the racemates and E/Z-mixtures was investigated using the micro‑dilution broth method. The compounds were diluted in ethanol. This stock solution was mixed with 100 µL of Mueller-Hinton broth to obtain concentrations from 10 µg/mL to 80 µg/mL. The mixtures were then transferred to 96-well microtiter plates. The microbial suspension was standardised to a cell density of 1.5 × 10^8 CFU, which was equal to an optical density of 0.5 on the Mc Farland scale by a bio-Merieux densitometer; one well was filled with broth only to act as a control for strain growth.

[2] = tested on: Escherichia coli ATCC 25922; test: Micro-dilution broth MIC, Escherichia coli; format: cell-based; settings: ATCC25922, 24 h, 37 °C, read-out: Minimum Inhibitory Concentrations MIC
Method: as §3, §4

MTT viability, HT29 = format: cell-based, human; settings: human, HT29 colorectal adenocarcinoma cells, 1000 µM (IC50 exceeded 1000 µM), read-out: viability ± standard deviation at 1000 µM
Method: as §1, §2

[3] = tested on: Enterococcus faecalis ATCC 51299; test: Micro-dilution broth MIC, Enterococcus faecalis; format: cell-based; settings: ATCC51299, 24 h, 37 °C, read-out: Minimum Inhibitory Concentrations MIC
Method: as §3, §4

Keratinocytes HaCaT = test: MTT viability, HaCaT; format: cell-based, human; settings: Homo sapiens, 24 h, range 10–1000 µM, read-out: half maximal inhibitory concentration (IC50), interpolated
Method: as §1, §2

[4] = tested on: Enterococcus faecium ATCC 35667; test: Micro-dilution broth MIC, Enterococcus faecium; format: cell-based; settings: ATCC35667, 24 h, 37 °C, read-out: Minimum Inhibitory Concentrations MIC
Method: as §3, §4

Fibroblasts HFIG = test: MTT viability, HFIG; format: cell-based, human; settings: Homo sapiens, Fibroblast, 24 h, range 10–1000 µM, read-out: half maximal inhibitory concentration (IC50), interpolated
Method: as §1, §2

[5] = tested on: Promyelocytic Leukaemia HL-60; test: MTT viability, HL-60; format: cell-based, human; settings: Homo sapiens, HL-60, 24 h, HL-60, MTT, range 10–1000 µM, read-out: half maximal inhibitory concentration (IC50), interpolated
Method: as §1, §2

[6] = tested on: Acinetobacter baumannii ATCC 19606; test: Micro-dilution broth MIC, Acinetobacter baumannii; format: cell-based; settings: ATCC19606, 24 h, 37 °C, read-out: Minimum Inhibitory Concentrations MIC
Method: as §3, §4

Malignant Melanoma MEWO = test: MTT viability, MEWO; format: cell-based, human; settings: Homo sapiens, 24 h, range 10–1000 µM, read-out: half maximal inhibitory concentration (IC50), interpolated
Method: as §1, §2

[7] = tested on: Klebsiella pneumoniae ATCC 700603; test: Micro-dilution broth MIC, Klebsiella pneumoniae; format: cell-based; settings: ATCC700603, 24 h, 37 °C, read-out: Minimum Inhibitory Concentrations MIC
Method: as §3, §4

Row | Compound | viability at 24 h, 1000 µM (MTT viability, IEC6) | MIC [1] | MIC [2] | viability at 24 h, 1000 µM (MTT viability, HT29) | MIC [3] | IC50 (Keratinocytes HaCaT) | MIC [4] | IC50 (Fibroblasts HFIG) | IC50 [5] | MIC [6] | IC50 (Malignant Melanoma MEWO) | MIC [7]
1 | CC(C)=CCCC(C)CC(C)=CC=O (stereo not drawn) [Compound 21, 3,5,9-Trimethyldeca-2,8-dienal] | 91% | 32 µg/mL (≈ 165 µM) | 54 µg/mL (≈ 278 µM) | 98% | 38 µg/mL (≈ 196 µM) | 830 µM | 42 µg/mL (≈ 216 µM) | 830 µM | 600 µM | 52 µg/mL (≈ 268 µM) | 640 µM | 48 µg/mL (≈ 247 µM)
2 | CC(C)=CCCC(C)CCC(C)=CCO (stereo not drawn) [Compound 28, 3,6,10-Trimethylundeca-2,9-dien-1-ol] | 101% | 26 µg/mL (≈ 124 µM) | 28 µg/mL (≈ 133 µM) | 93% | 18 µg/mL (≈ 85.6 µM) | 698 µM | 16 µg/mL (≈ 76.1 µM) | 687 µM | 198 µM | 18 µg/mL (≈ 85.6 µM) | 512 µM | 16 µg/mL (≈ 76.1 µM)
3 | CC(=CCO)CCC=C(C)C(C)CCCC(C)C (stereo not drawn) [Compound 26, 3,7,8,12-Tetramethyltrideca-2,6-dien-1-ol] | 76% | 32 µg/mL (≈ 127 µM) | 48 µg/mL (≈ 190 µM) | 96% | 30 µg/mL (≈ 119 µM) | 620 µM | 36 µg/mL (≈ 143 µM) | 531 µM | 145 µM | 38 µg/mL (≈ 151 µM) | 495 µM | 42 µg/mL (≈ 166 µM)
4 | CC(=O)OCC=C(C)CCC=C(C)C(C)CCCC(C)C (stereo not drawn) [Compound 32, 3,7,8,12-Tetramethyltrideca-2,6-dien-1-yl acetate] | 92% | 28 µg/mL | 28 µg/mL | 103% | 22 µg/mL | 950 µM | 20 µg/mL | 980 µM | 278 µM | 22 µg/mL | 800 µM | 18 µg/mL
5 | CC(C)=CCCC(C)/C=C/CCC(C)=CCO (stereo not drawn) [Compound 25, (6E)-3,8,12-Trimethyltrideca-2,6,11-trien-1-ol] | 82% | 28 µg/mL (≈ 118 µM) | 50 µg/mL (≈ 212 µM) | 108% | 32 µg/mL (≈ 135 µM) | 667 µM | 34 µg/mL (≈ 144 µM) | 454 µM | 167 µM | 44 µg/mL (≈ 186 µM) | 500 µM | 48 µg/mL (≈ 203 µM)
6 | CC(C)=CCCC(C)CC(C)C(C)=CCO (stereo not drawn) [Compound 29, 3,4,6,10-Tetramethylundeca-2,9-dien-1-ol] | 103% | 28 µg/mL (≈ 125 µM) | 38 µg/mL (≈ 169 µM) | 82% | 22 µg/mL (≈ 98 µM) | 946 µM | 18 µg/mL (≈ 80.2 µM) | 756 µM | 252 µM | 32 µg/mL (≈ 143 µM) | 587 µM | 36 µg/mL (≈ 160 µM)
7 | CC(C)=CCCC(C)CCC(C)=CC=O (stereo not drawn) [Compound 22, 3,6,10-Trimethylundeca-2,9-dienal] | 76% | 26 µg/mL (≈ 125 µM) | 44 µg/mL (≈ 211 µM) | 93% | 24 µg/mL (≈ 115 µM) | 880 µM | 46 µg/mL (≈ 221 µM) | 740 µM | 600 µM | 36 µg/mL (≈ 173 µM) | 700 µM | 36 µg/mL (≈ 173 µM)
8 | CC(=CC=O)CCC=C(C)C(C)CCCC(C)C (stereo not drawn) [Compound 20, 3,7,8,12-Tetramethyltrideca-2,6-dienal] | 64% | 22 µg/mL (≈ 87.9 µM) | 48 µg/mL (≈ 192 µM) | 82% | 20 µg/mL (≈ 79.9 µM) | 850 µM | 32 µg/mL (≈ 128 µM) | 610 µM | 480 µM | 38 µg/mL (≈ 152 µM) | 690 µM | 38 µg/mL (≈ 152 µM)
9 | CC(C)=CCCC(C)=CCCC(C)=CC=O [Farnesal (3), farnesal, reference compound] | 85% | 24 µg/mL (≈ 109 µM) | 46 µg/mL (≈ 209 µM) | 110% | 22 µg/mL (≈ 99.8 µM) | 702 µM | 36 µg/mL (≈ 163 µM) | 650 µM | 363 µM | 36 µg/mL (≈ 163 µM) | 467 µM | 44 µg/mL (≈ 200 µM)
10 | CC(C)=CCCC(C)CC(C)=CCO (stereo not drawn) [Compound 27, 3,5,9-Trimethyldeca-2,8-dien-1-ol] | 93% | 28 µg/mL (≈ 143 µM) | 36 µg/mL (≈ 183 µM) | 106% | 26 µg/mL (≈ 132 µM) | 687 µM | 18 µg/mL (≈ 91.7 µM) | 489 µM | 143 µM | 34 µg/mL (≈ 173 µM) | 456 µM | 18 µg/mL (≈ 91.7 µM)
11 | CC(C)=CCCC(C)/C=C/CCC(C)=CC=O (stereo not drawn) [Compound 19, (6E)-3,8,12-Trimethyltrideca-2,6,11-trienal] | 94% | 28 µg/mL (≈ 119 µM) | 44 µg/mL (≈ 188 µM) | 96% | 34 µg/mL (≈ 145 µM) | 650 µM | 38 µg/mL (≈ 162 µM) | 750 µM | 550 µM | 42 µg/mL (≈ 179 µM) | 600 µM | 36 µg/mL (≈ 154 µM)
